Structures are written as SMILES. Where a name gives a salt, the structure may show the parent alone.

The assay deals with Isolated guinea-pig taenia coli. In words: calcium-antagonistic activity: inhibition of CaCl2-induced contraction of isolated guinea-pig taenia coli. The following applies: Cavia porcellus, Ca^++ -free Krebs solution, 32° C., test compound 5 minutes before CaCl2 (3×10^-4 M), isotonic recording, read-out: IC50 (concentration of the test compound which elicited 50% inhibition of Ca^++ -induced contraction). The class given is cell-based. The procedure: (Method for mesurement of calcium-antagonistic activity) Isolated guinea-pig taenia coli was suspended in a 20 ml organ bath filled with Krebs solution at32° C. and bubbled with 5% carbon dioxide in oxygen. After equilibration, the muscle was suspended in Ca^++ -free Krebs solution. The muscle was then exposed to the test compound for 5 minutes before the addition of CaCl2, and the contraction induced by CaCl2 (3×10^-4 M) was recorded isotonically. The calcium-antagonistic activity was represented by the concentration of the test compound which elicited 50% inhibition (IC50) of Ca^++ -induced contraction.
For `COc1ccc(OCCCCN(C)CCOc2ccc3c(c2)OCO3)c(C2Sc3ccccc3N(C)C2=O)c1` (stereo not shown) [Compound A, 3,4-dihydro-2-[5-methoxy-2-[4-[N-methyl-N-[2-[(3,4-methylenedioxy)phenoxy]ethyl]amino]butoxy]phenyl]-4-methyl-3-oxo-2H-1,4-benzothiazine oxalate], the IC50 was determined as 320 nM.
Take `COc1ccc(OCCCN(C)CCOc2ccc3c(c2)OCO3)c(C2Sc3ccccc3N(C)C2=O)c1` (stereo not shown) [Compound B, 3,4-dihydro-2-[5-methoxy-2-[3-[N-methyl-N-[2-[(3,4-methylenedioxy)phenoxy]ethyl]amino]propoxy]phenyl]-4-methyl-3-oxo-2H-1,4-benzothiazine fumarate]: the IC50 was 240 nM.
The same measure for `COc1ccc(OCCCCN(C)CCOc2ccc(OC)c(OC)c2)c(C2Sc3ccccc3N(C)C2=O)c1` (stereo not shown) [Compound C, 3,4-dihydro-2-[5-methoxy-2-[4-[N-methyl-N-[2-[(3,4-dimethoxy)phenoxy]ethyl]amino]butoxy]phenyl]-4-methyl-3-oxo-2H-1,4-benzothiazine oxalate]: 290 nM; for `COc1ccc(OCCCCN(C)CCc2ccc(OC)c(OC)c2)c(C2Sc3ccccc3N(C)C2=O)c1` (stereo not shown) [Reference Compound, 3,4-dihydro-2-[5-methoxy-2-[4-[N-methyl-(3,4-dimethoxy)phenetylamino]butoxy]phenyl]-4-methyl-3-oxo-2H-1,4-benzothiazine oxalate, reference compound]: 3200 nM.
